In PubChem BioAssay AID743417 (Broad Institute, 2014):
Results filed as inconclusive are left out. Calls of active or inactive are those of the source.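 Rule for the calls: active = compounds lowering the luciferase signal with a fitted half-maximal dose at most twice their top valid dose (cut at about 30 µM in these data); inconclusive = flat fits with moderate signal loss, or poor fits; inactive = the rest.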

Test system: Clone20 osteoblast Shn3 3'UTR firefly luciferase, 24 h
Assay: Schnurri-3 3'UTR-luciferase signal suppressors – cell-based, Clone20 osteoblasts, luminescence, dry powder, set 2, dose response (AID 743417)

Structure (SMILES) | AC50
O=C(Nc1ccc(S(=O)(=O)N2CCCC2)cc1)c1ccc(CN2CCc3ccccc3C2)cc1 | 575 nM
COc1ccccc1NC(=O)c1nc(S(=O)(=O)Cc2ccccc2)ncc1Cl | 492 nM
CCn1c(C)nc2cc(-c3nnc(-c4c(-c5ccccc5)noc4C)o3)ccc21 | 5820 nM
C=C1C(=O)[C@]23C[C@H]1CCC2[C@@]1(C)C(C[C@@H]3O)[C@](C)(C(=O)OC)CC[C@@H]1OC(C)=O (stereo partly specified) | 2140 nM
Nc1nnc(SCC(=O)Nc2ccc(N3CCOCC3)cc2)s1 | 16800 nM
O=C(C(=Cc1ccccc1)CN1CCCCC1)c1ccccc1 | 3180 nM
CCc1nnc(NC(=O)c2nc(S(=O)(=O)Cc3cccc(C)c3)ncc2Cl)s1 | 2510 nM
OC(c1cc(-c2cccc(Cl)c2)nc2ccccc12)C1CCCCN1 (stereo unspecified) | 10800 nM
CCCCC(=O)NC(c1ccc(OC)cc1)c1ccc2cccnc2c1O (stereo unspecified) | 2280 nM
CC1CCC2C(=O)N(c3ccc(Cc4ccncc4)cc3)C(=O)C2C1 (stereo unspecified) | 2650 nM
COCCN1Cc2cccc(C(=O)Nc3ccc4c(c3)OCCO4)c2C1=O | 27100 nM
CCc1ccc(Nc2n[n+](-c3ccccc3)c(-c3c(Cl)cccc3Cl)s2)cc1 | 5400 nM
O=C1NC2C(=CC(O)C(O)C2O)c2cc3c(c(O)c21)OCO3 (stereo unspecified) | < 260 nM
O=C(Nc1ccc([N+](=O)[O-])cc1)Nc1nc(-c2ccc(Cl)s2)cs1 | 3190 nM
Nc1nc(N)c2cc(S(=O)(=O)c3cccc(C(F)(F)F)c3)ccc2n1 | 5220 nM
CCCSc1nnc(CSc2nc3ccccc3s2)n1-c1ccccc1 | 7050 nM
CCCc1nc2c(=O)n(C)c(=O)nc-2n(C)n1 | 2170 nM
COc1ccc(NC(=O)Cn2nnc(-c3ccccc3NS(=O)(=O)c3ccccc3)n2)cc1 | 485 nM
COc1ccc(C2/C=C\CN(C(=O)c3ccc(C)cc3)[C@H](Cc3ccccc3)C(=O)N2Cc2ccc(F)cc2)cc1 (stereo partly specified) | 772 nM
CCOC(=O)N1CCN(C(=O)c2ccc3c(c2)N(Cc2ccc(C)cc2)CCS3)CC1 | 6000 nM
COc1cc(OC)c(OC)cc1CNc1cc(C)ccc1OC | 18100 nM
CS(=O)(=O)c1nc(-c2ccc(F)cc2)cc(C(F)(F)F)n1 | 2720 nM
O[C@@H]1CN(Cc2ccc(-n3cccn3)cc2)CC[C@H]1N1CCN(c2ccccc2F)CC1 | 2130 nM
CC(=O)NC(c1cccc([N+](=O)[O-])c1)c1ccc2cccnc2c1O (stereo unspecified) | 889 nM
CCCc1nc2ccc(Br)cc2c(=O)n1-c1ccc([N+](=O)[O-])c(C(F)(F)F)c1 | 15700 nM
Cc1cc2sc3ccc(C#CC4(O)CCCCC4)cc3c(=O)c2cc1C | < 260 nM

Structure (SMILES) | AC50
O=C(c1cccc(S(=O)(=O)N2CCN(c3ccccc3)CC2)c1)N1CCCC(C(F)(F)F)C1 (stereo unspecified) | 2680 nM
CC(C)(O)/C=C/C(=O)C(C)(O)C1C(O)CC2(C)C3CC=C4C(C=C(O)C(=O)C4(C)C)C3(C)C(=O)CC12C (stereo unspecified) | 1830 nM
CC(C)(C)NC(=O)NC(=O)CN1CCN(c2ccc(O)cc2)CC1 | 1900 nM
Cc1cccc(/C=C(\c2nc3ccccc3[nH]2)S(=O)(=O)c2ccccc2)c1 | 4500 nM
O=C(Nc1cc(F)ccc1F)N1CCN(c2ccnc3cc(Cl)ccc23)CC1 | 22800 nM
CN(C)S(=O)(=O)c1cccc(NC(=O)c2cccc(S(=O)(=O)N3CCc4ccccc43)c2)c1 | 3920 nM
COc1ccc(C(NC(C)=O)c2ccc3cccnc3c2O)c(OC)c1 (stereo unspecified) | 1740 nM
C=C1C(=O)OC2CC(C)C3C=CC(=O)C3(C)C(O)C12 (stereo unspecified) | < 260 nM
O=C(Cc1ccc(Cl)cc1Cl)Nc1ccncc1Cl | 1630 nM
Cc1cccc(Cn2c(NCCO)nc3c2c(=O)n(C)c(=O)n3C)c1 | 528 nM
O=C1ON=C(c2ccccc2)/C1=C/c1ccc(-c2ccccc2[N+](=O)[O-])o1 | 7210 nM
COc1ccc(C(=O)NNC(=O)c2cccc(S(=O)(=O)N3CCOCC3)c2)cc1 | 23200 nM
FC(F)(F)c1nc(-c2cccs2)ncc1-c1nnnn1-c1ccc(Cl)cc1 | 2100 nM
CCN(CC)CCNc1cc(C)nc2c1C(=O)C(=O)C=C2N1CCCCC1 | 6610 nM
Cc1ccc(N2C(=O)c3cccc4c([N+](=O)[O-])ccc(c34)C2=O)c2cccnc12 | 5680 nM
Cc1cc(C)c2nc(NNC(=O)c3ccc(S(=O)(=O)N4CC(C)CC(C)C4)cc3)sc2c1 (stereo unspecified) | 2280 nM
CC(C)N(CCC(=O)c1ccc2ccccc2c1)Cc1ccccc1 | 4220 nM
C=C1C(=O)O[C@@H]2C[C@@H](C)[C@@H]3C=CC(=O)[C@@]3(C)[C@@H](OC(=O)CC(=O)O[C@H]3[C@@H]4C(=C)C(=O)O[C@@H]4C[C@@H](C)[C@@H]4C=CC(=O)[C@]43C)[C@H]12 | 292 nM
CCC(=O)c1cn(CC(=O)Nc2cccc(C)c2C)c2ccccc12 | 1520 nM
CCN(CC)S(=O)(=O)c1ccc(C)c(NC(=S)N2CCN(C/C=C/c3ccccc3)CC2)c1 | 2550 nM
O=C(Nc1nc(-c2ccccn2)cs1)c1ccc(F)c(S(=O)(=O)N2CCOCC2)c1 | 1320 nM
O=C(NNC(=O)c1cccc(S(=O)(=O)N2CCc3ccccc32)c1)c1ccccc1 | 1520 nM
CCCOC(=O)c1ccc(OCC(O)Cn2c(C)nc3ccccc32)cc1 (stereo unspecified) | 620 nM
CCCCN(C(C)=O)c1ccc2c(c1)C1CC2CCN1C(=O)OCc1ccccc1 (stereo unspecified) | 1370 nM
COc1cccc(CNc2ncnc3cc(Cl)ccc23)c1 | 3730 nM
O=C(c1cc2sccc2n1Cc1ccc(F)cc1)N1CCN(c2nc3ccccc3s2)CC1 | 1360 nM

Structure (SMILES) | AC50
CN1/C(=C/C(=O)c2nc(S(C)(=O)=O)ncc2Cl)C(C)(C)c2ccccc21 | 5210 nM
O=C(c1cc(COc2ccc3ncccc3c2)on1)N1CCCCCC1 | 703 nM
Oc1c(Cl)cc(CN2CCOCC2)c2cccnc12 | 2430 nM
CC(CC(=O)N1CCN(c2cccc(Cl)c2)CC1)S(=O)(=O)c1ccc2c(c1)NC(=O)CO2 (stereo unspecified) | 3990 nM
O=C(OCn1ncc(Cl)c(Cl)c1=O)c1cccc(C(F)(F)F)c1 | 3740 nM
COc1ccc(OC)c(C(c2nnnn2Cc2ccccc2)N2CCN(C3CCCCC3)CC2)c1 (stereo unspecified) | > 70000 nM (inactive)
COc1ccc(CNC(=O)C(c2ccc(C)cc2)N(Cc2cccs2)C(=O)c2ccc3c(c2)OCCO3)cc1 (stereo unspecified) | 8100 nM
COc1ccc(NC(=O)c2sc3ncnc(N4CCN(c5ccccn5)CC4)c3c2C)cc1Cl | 4080 nM
O=C(Nc1nc(-c2ccccn2)cs1)c1ccc(Br)s1 | 1000 nM
CCC(=O)c1cn(CC(=O)Nc2ccccc2Cl)c2ccccc12 | < 260 nM
Cc1cccc2c(C(=O)N3CCN(c4ccccn4)CC3)cc(-c3cccc(Br)c3)nc12 | 6480 nM
O=C(Nc1nc(-c2ccccc2)cs1)c1ccc(N2CCOCC2)c([N+](=O)[O-])c1 | 3750 nM
COc1ccc(OC)c(/C=C/C(=O)N2C(=O)c3cccc(N)c3C2=O)c1 | 3250 nM
CC1CCN(Cc2ccc(-c3nnn(CC(=O)Nc4ccccc4Cl)n3)cc2)CC1 | 1770 nM
Cc1ccn2c(Nc3ccccc3)c(-c3ccccn3)nc2c1 | 2310 nM
COc1ccc(C(=O)C(CN2CCOCC2)c2ccccc2)cc1 (stereo unspecified) | 5590 nM
C=C[C@]1(C)C=C2C(=O)[C@@]3(O)OC(=O)[C@@]4(CCCC(C)(C)[C@H]34)[C@@]2(O)CC1 | 4980 nM
O=[N+]([O-])c1c(NCCO)cc(Sc2nc3ccccc3s2)c2nonc12 | 1640 nM
N#CC(c1ccc(Cl)cc1)c1ccc2c(C(F)(F)F)cc(C(F)(F)F)nc2n1 (stereo unspecified) | 487 nM
COc1ccc(C2/C=C\CN(S(=O)(=O)c3ccc(C)cc3)[C@H](Cc3ccccc3)C(=O)N2Cc2ccc(F)cc2)cc1 (stereo partly specified) | 12900 nM
CCN(CC)S(=O)(=O)c1cc(NC(=O)C2CCN(c3ncnc4sc(C)c(C)c34)CC2)ccc1Cl | 5080 nM
CCN(C(=O)c1ccc(C(C)(C)C)cc1)c1nnc(Cn2nnc3ccccc32)s1 | 1350 nM
CN1OC[C@@H]2CN[C@H](c3ccc(-c4cc5ccccc5o4)cc3)C[C@@H]21 | < 260 nM
O=C(Nc1ccc(N2CCN(C(=O)c3ccc(Cl)cc3)CC2)cc1)c1ccc2c(c1)OCCO2 | 2540 nM
O=C(CSc1nnc(-c2cccnc2)s1)Nc1ccnc2ccccc12 | 661 nM
O=C(Nc1ccc(Oc2ccccc2)cc1)C1CCN(c2c3c(nc4ncnn24)CCC3)CC1 | 5640 nM

Structure (SMILES) | AC50
CCCC(=O)NC(c1ccc(C(C)C)cc1)c1ccc2cccnc2c1O (stereo unspecified) | 470 nM
O=C(N[C@@H]1C/C=C\C[C@@H](CC(=O)N(CCO)Cc2ccccc2)C(=O)NC[C@H](c2ccccc2)OC1=O)OCC1c2ccccc2-c2ccccc21 | 7040 nM
CC1Cc2cc(S(=O)(=O)N3CCN(c4ccc(Cl)cc4)CC3)ccc2N1C(=O)C1CC1 (stereo unspecified) | 4260 nM
N#C/C(=C(\O)Cc1ccccc1)c1nc2ccccc2[nH]1 | > 70000 nM (inactive)
O=C(/C=C/c1ccc(F)cc1)NC(=S)NNC(=O)c1cnccn1 | 1390 nM
CC1Sc2ccc(S(=O)(=O)N3CCC(C(=O)Nc4cccc(Cl)c4)CC3)cc2NC1=O (stereo unspecified) | 3270 nM
O=C(/C=C/c1cccc([N+](=O)[O-])c1)n1cnc2ccccc21 | 594 nM
COc1cc2nc(N3CCN(c4cc(C)ccc4C)CC3)nc(N)c2cc1OC | 5440 nM
COC(=O)c1ccccc1NC(=S)N(Cc1ccc2c(c1)OCO2)Cc1cc2cc(OC)ccc2[nH]c1=O | 10400 nM
COc1ccc(CC2(CO)CCN(CC3=Cc4cc(Cl)ccc4OC3)CC2)cc1 | 1330 nM
CC(=O)N1CCOc2cc(S(=O)(=O)NCc3ccc(F)cc3)c(C)cc21 | > 70000 nM (inactive)
CCCC(=O)NC(c1cccc([N+](=O)[O-])c1)c1ccc2cccnc2c1O (stereo unspecified) | 1750 nM
CCCCOCCCNc1ncnc2c1[nH]c1ccccc12 | 1050 nM
Oc1c(CN2CCCCC2)cc(COCc2ccccc2)c2cccnc12 | 537 nM
COc1cccc(N2CCN(c3ncnc4c3[nH]c3ccc(F)cc34)CC2C)c1 (stereo unspecified) | 1310 nM
CC[C@@H](C(=O)[C@@H](C)[C@@H](O)[C@H](C)CCc1ccc(C)c(O)c1C(=O)O)[C@H]1O[C@](CC)([C@H]2CC[C@](O)(CC)[C@H](C)O2)C[C@@H]1C | 7930 nM
CCOc1cc(CNCCCN2CCOCC2)cc(Br)c1OCc1ccccc1Cl | 9310 nM
Cc1ccccc1CS(=O)(=O)c1nnc([C@H](Cc2ccccc2)NC(=O)OC(C)(C)C)o1 | 1230 nM
C=CCOC(=O)C1=C(C)N=C2SCCC(=O)N2C1c1cccs1 (stereo unspecified) | > 70000 nM (inactive)
Cc1ccc(F)cc1CNC(=O)c1cc(COc2ccc3ncccc3c2)on1 | 4880 nM
CC(=O)N1CCc2c(sc(NC(=O)c3ccc([N+](=O)[O-])o3)c2C(N)=O)C1 | 1850 nM
CC(O)CC(=O)OC[C@]12CC[C@H]3[C@@](C)(CC[C@H]4C(C)(C)CCC[C@]34C)[C@@H]1CC(C1=CC(=O)OC1O)O2 (stereo partly specified) | 3750 nM
O=C(OCCC12CC3CC(CC(C3)C1)C2)c1ccc(NCc2cc(O)ccc2O)cc1 | 1820 nM
